Literature values in PubChem BioAssay AID1259409 (Chemical Carcinogenesis Research Information System (CCRIS), 2018).

Test system: rodent chemically induced tumor inhibition, incidence and multiplicity
Experiment: CCRIS tumor inhibitor studies

O=c1cc(-c2ccccc2)oc2c1ccc1ccccc12
tumour outcome (control, treated, inhibition, significance) (Carcinogen: 2-AMINO-1-METHYL-6-PHENYLIMIDAZO[4,5-B]PYRIDINE [105650-23-5], Dose [Inhibitor]: 1,000 PPM IN DIET FOR 4 WK BEGINNING WK PRIOR TO FIRST CARCINOGEN DOSE (STUDY DURATION: 25 WK), Route [Inhibitor]: ORAL, Species: RAT, Strain/Sex: SPRAGUE-DAWLEY/FEMALE, Target Tissue: Type of Lesion: MAMMARY GLAND: FIBROADENOMA OR DUCTAL CARCINOMA, Dose [Carcinogen]: 85 MG/KG BW 2/WK FOR 4 WK (STUDY DURATION: 25 WK), Promoter: NONE): 63%, 36%, 42%, not significant | tumour outcome (control, treated, inhibition, significance) (Carcinogen: 6-HYDROXYMETHYLBENZO[A]PYRENE, 21247-98-3, Dose [Inhibitor]: 100 UG IN 0.2 ML ACETONE ONCE 5 MINUTES BEFORE CARCINOGEN TREATMENT (STUDY DURATION: 31 WK), Route [Inhibitor]: DERMAL, Species: MOUSE, Strain/Sex: CD-1/FEMALE, Target Tissue: Type of Lesion: SKIN: PAPILLOMA, Dose [Carcinogen]: 400 NMOL IN 0.2 ML ACETONE ONCE, Promoter: 12-O-TETRADECANOYLPHORBOL-13-ACETATE, 16561-29-8): 57%, 60%, -5%, not calculated | tumour outcome (control, treated, inhibition, significance) (Carcinogen: 6-METHYLBENZO[A]PYRENE, 2381-39-7, Dose [Inhibitor]: 100 UG IN 0.2 ML ACETONE ONCE 5 MINUTES BEFORE CARCINOGEN TREATMENT (STUDY DURATION: 31 WK), Route [Inhibitor]: DERMAL, Species: MOUSE, Strain/Sex: CD-1/FEMALE, Target Tissue: Type of Lesion: SKIN: PAPILLOMA, Dose [Carcinogen]: 400 NMOL IN 0.2 ML ACETONE ONCE, Promoter: 12-O-TETRADECANOYLPHORBOL-13-ACETATE, 16561-29-8): 73%, 40%, 44%, not calculated | tumour outcome (control, treated, inhibition, significance) (Carcinogen: 7,12-DIMETHYLBENZ[A]ANTHRACENE, 57-97-6, Dose [Inhibitor]: 0, 0.37 NMOL IN 0.2 ML ACETONE APPLIED 5 MIN PRIOR TO CARCINOGEN (STUDY DURATION: 21 WK), Route [Inhibitor]: DERMAL, Species: MOUSE, Strain/Sex: SENCAR/FEMALE, Target Tissue: Type of Lesion: SKIN: PAPILLOMA, Dose [Carcinogen]: 40 NMOL IN 0.2 ML ACETONE ONCE, Promoter: 12-O-TETRADECANOYLPHORBOL-13-ACETATE, 16561-29-8): 100%, 100%, 0% | tumour outcome (control, treated, inhibition, significance) (Carcinogen: 7,12-DIMETHYLBENZ[A]ANTHRACENE, 57-97-6, Dose [Inhibitor]: 0, 3.7 NMOL IN 0.2 ML ACETONE APPLIED 5 MIN PRIOR TO CARCINOGEN (STUDY DURATION: 21 WK), Route [Inhibitor]: DERMAL, Species: MOUSE, Strain/Sex: SENCAR/FEMALE, Target Tissue: Type of Lesion: SKIN: PAPILLOMA, Dose [Carcinogen]: 40 NMOL IN 0.2 ML ACETONE ONCE, Promoter: 12-O-TETRADECANOYLPHORBOL-13-ACETATE, 16561-29-8): 100%, 100%, 0% | tumour outcome (control, treated, inhibition, significance) (Carcinogen: 7,12-DIMETHYLBENZ[A]ANTHRACENE, 57-97-6, Dose [Inhibitor]: 0, 37 NMOL IN 0.2 ML ACETONE APPLIED 5 MIN PRIOR TO CARCINOGEN (STUDY DURATION: 21 WK), Route [Inhibitor]: DERMAL, Species: MOUSE, Strain/Sex: SENCAR/FEMALE, Target Tissue: Type of Lesion: SKIN: PAPILLOMA, Dose [Carcinogen]: 10 NMOL IN 0.2 ML ACETONE ONCE, Promoter: 12-O-TETRADECANOYLPHORBOL-13-ACETATE, 16561-29-8): 79%, 60%, 24%, not calculated | tumour outcome (control, treated, inhibition, significance) (Carcinogen: 7,12-DIMETHYLBENZ[A]ANTHRACENE, 57-97-6, Dose [Inhibitor]: 0, 37 NMOL IN 0.2 ML ACETONE APPLIED 5 MIN PRIOR TO CARCINOGEN (STUDY DURATION: 21 WK), Route [Inhibitor]: DERMAL, Species: MOUSE, Strain/Sex: SENCAR/FEMALE, Target Tissue: Type of Lesion: SKIN: PAPILLOMA, Dose [Carcinogen]: 40 NMOL IN 0.2 ML ACETONE ONCE, Promoter: 12-O-TETRADECANOYLPHORBOL-13-ACETATE, 16561-29-8): 100%, 87%, 13%, not calculated | tumour outcome (control, treated, inhibition, significance) (Carcinogen: 7,12-DIMETHYLBENZ[A]ANTHRACENE, 57-97-6, Dose [Inhibitor]: 0, 370 NMOL IN 0.2 ML ACETONE APPLIED 5 MIN PRIOR TO CARCINOGEN (STUDY DURATION: 21 WK), Route [Inhibitor]: DERMAL, Species: MOUSE, Strain/Sex: SENCAR/FEMALE, Target Tissue: Type of Lesion: SKIN: PAPILLOMA, Dose [Carcinogen]: 10 NMOL IN 0.2 ML ACETONE ONCE, Promoter: 12-O-TETRADECANOYLPHORBOL-13-ACETATE, 16561-29-8): 79%, 46%, 42%, not calculated | tumour outcome (control, treated, inhibition, significance) (Carcinogen: 7,12-DIMETHYLBENZ[A]ANTHRACENE, 57-97-6, Dose [Inhibitor]: 0, 370 NMOL IN 0.2 ML ACETONE APPLIED 5 MIN PRIOR TO CARCINOGEN (STUDY DURATION: 21 WK), Route [Inhibitor]: DERMAL, Species: MOUSE, Strain/Sex: SENCAR/FEMALE, Target Tissue: Type of Lesion: SKIN: PAPILLOMA, Dose [Carcinogen]: 40 NMOL IN 0.2 ML ACETONE ONCE, Promoter: 12-O-TETRADECANOYLPHORBOL-13-ACETATE, 16561-29-8): 100%, 97%, 3%, not calculated | tumour outcome (control, treated, inhibition, significance) (Carcinogen: 7,12-DIMETHYLBENZ[A]ANTHRACENE, 57-97-6, Dose [Inhibitor]: 25 UG/MOUSE APPLIED 6 HR BEFORE, 5 MIN BEFORE, AND 6 HR AFTER DMBA (STUDY DURATION: 28 WK), Route [Inhibitor]: DERMAL, Species: MOUSE, Strain/Sex: CD-1/FEMALE, Target Tissue: Type of Lesion: SKIN: PAPILLOMA, Dose [Carcinogen]: 2.56 UG APPLIED ONCE 5 MIN AFTER INHIBITOR, Promoter: 12-O-TETRADECANOYLPHORBOL-13-ACETATE, 16561-29-8): 82%, 22%, 73%, not calculated | tumour outcome (control, treated, inhibition, significance) (Carcinogen: 7,12-DIMETHYLBENZ[A]ANTHRACENE, 57-97-6, Dose [Inhibitor]: 25 UG/MOUSE APPLIED ONCE 5 MIN BEFORE DMBA (STUDY DURATION: 28 WK), Route [Inhibitor]: DERMAL, Species: MOUSE, Strain/Sex: CD-1/FEMALE, Target Tissue: Type of Lesion: SKIN: PAPILLOMA, Dose [Carcinogen]: 2.56 UG APPLIED ONCE 5 MIN AFTER INHIBITOR, Promoter: 12-O-TETRADECANOYLPHORBOL-13-ACETATE, 16561-29-8): 82%, 48%, 41%, not calculated | tumour outcome (control, treated, inhibition, significance) (Carcinogen: 7,12-DIMETHYLBENZ[A]ANTHRACENE, 57-97-6, Dose [Inhibitor]: 100 UG IN 0.2 ML ACETONE ONCE 5 MIN BEFORE CARCINOGEN TREATMENT (STUDY DURATION: 31 WK), Route [Inhibitor]: DERMAL, Species: MOUSE, Strain/Sex: CD-1/FEMALE, Target Tissue: Type of Lesion: SKIN: PAPILLOMA, Dose [Carcinogen]: 10 NMOL IN 0.2 ML ACETONE ONCE, Promoter: 12-O-TETRADECANOYLPHORBOL-13-ACETATE, 16561-29-8): 90%, 38%, 58%, not calculated
